Reference: patent US8017638B2, “Isoxazole derivative and isothiazole derivative having inhibitory activity on 11β-hydroxysteroid dehydrogenase type 1” (Shionogi & Co., Ltd., priority 2006, dated 2011)

Tests used:
[1] = biological target: recombinant mouse 11β-HSD1 (Mus musculus, UniProt P50172); test: Enzyme activity assay on mouse 11β-HSD1 (HTRF, corticosterone production); format: biochemical; settings: recombinant mouse 11β-HSD1, 2 μM 11-dehydrocorticosterone as substrate, 2 hours at 37° C., read-out: mouseIC50
Chain of recombinant mouse 11β-HSD1 (P50172 whole entry): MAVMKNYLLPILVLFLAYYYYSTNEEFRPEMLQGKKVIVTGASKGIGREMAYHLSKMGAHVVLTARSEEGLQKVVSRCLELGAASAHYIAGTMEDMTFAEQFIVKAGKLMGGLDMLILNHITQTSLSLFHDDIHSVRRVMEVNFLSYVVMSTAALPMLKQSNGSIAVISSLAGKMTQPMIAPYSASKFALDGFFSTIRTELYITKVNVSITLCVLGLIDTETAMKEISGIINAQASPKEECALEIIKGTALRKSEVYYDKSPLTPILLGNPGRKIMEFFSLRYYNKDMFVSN
Description: Evaluation of 11β-HSD1 Inhibitors (Enzyme Activity Assay on Mouse 11β-HSD1)
Enzymatic activity for mouse 11β-HSD1 activity was determined in a 10 μl final volume of assay mixture containing 50 mM sodium phosphate buffer (pH 7.6), 1 mg/ml bovine serum albumin, 0.42 mg/ml NADPH, 1.26 mg/ml glucose-6-phosphate, glucose-6-phosphate dehydrogenase, test compound, recombinant mouse 11β-HSD1, and 2 μM 11-dehydrocorticosterone as substrate. The reaction was started with the addition of 11-dehydrocorticosterone. After incubation for 2 hours at 37° C., 5 μl of europium cryptate-labelled anti-cortisol antibody and 5 μl of XL665-labeled cortisol were added. After further incubation for 2 hours at room temperature, the HTRF signal was measured. The corticosterone production was quantitated by a standard curve generated with several known concentrations of corticosterone in each assay.
(§1) The amount of corticosterone production without compounds served as control, and the percent inhibition by compound at each concentration was calculated. The IC50 value of the compound for 11β-HSD1 was obtained using the inhibition curve generated by plotting the percent inhibition versus the concentration of test compound.

[2] = biological target: recombinant human 11β-HSD1 (Homo sapiens, UniProt P28845); test: Enzyme activity assay on human 11β-HSD1 (HTRF, cortisol production); format: biochemical; settings: recombinant human 11β-HSD1, 5 μM cortisone as substrate, 2 hours at 37° C., read-out: humanIC50
Chain of recombinant human 11β-HSD1 (P28845 whole entry): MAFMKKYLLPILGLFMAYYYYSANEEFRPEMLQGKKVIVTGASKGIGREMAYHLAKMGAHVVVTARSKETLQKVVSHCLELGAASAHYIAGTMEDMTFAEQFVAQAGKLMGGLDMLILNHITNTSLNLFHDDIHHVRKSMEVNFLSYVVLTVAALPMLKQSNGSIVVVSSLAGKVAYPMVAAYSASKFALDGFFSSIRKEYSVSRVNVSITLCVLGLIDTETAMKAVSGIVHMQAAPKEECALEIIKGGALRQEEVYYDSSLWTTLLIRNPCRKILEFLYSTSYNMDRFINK
Description: Evaluation of 11β-HSD1 Inhibitors (Enzyme Activity Assay on Human 11β-HSD1)
Enzymatic activity for human 11β-HSD1 was determined in a 10 μl final volume of assay mixture containing 50 mM sodium phosphate buffer (pH 7.6), 1 mg/ml bovine serum albumin, 0.42 mg/ml NADPH, 1.26 mg/ml glucose-6-phosphate, glucose-6-phosphate dehydrogenase, test compound, recombinant human 11β-HSD1, and 5 μM cortisone as substrate. The reaction was started with the addition of cortisone. After incubation for 2 hours at 37° C., 5 μl of europium cryptate-labelled anti-cortisol antibody and 5 μl of XL665-labeled cortisol were added. After further incubation for 2 hours at room temperature, the homogeneous time-resolved fluorescence (HTRF) signal was measured. The cortisol production was quantitated by a standard curve generated with several known concentrations of cortisol in each assay.
as §1, with “amount of cortisol production without” for “amount of corticosterone production without”, “inhibition by test compound at” for “inhibition by compound at”

Row | SMILES | IC50 [1] [nM] | IC50 [2] [nM]
1 | CC(C)Sc1c(OCC(C)(C)N)noc1C(=O)NC1C2CC3CC(C2)CC1C3 (stereo not drawn) [Compound 29] | 330 | 43
2 | CC(C)Sc1c(OCC(F)(F)C(=O)NCCN)noc1C(=O)NC1C2CC3CC(C2)CC1C3 (stereo not drawn) [II-25] | 160 | 51
3 | CC(C)Sc1c(OCC2CCNCC2)noc1C(=O)NC1C2CCCC1CCC2 (stereo not drawn) [Compound 12b] | 1600 | 140
4 | CC(C)Sc1c(OCC(C)(C)NC(=O)C2(N)CC2)noc1C(=O)NC1C2CC3CC(C2)CC1C3 (stereo not drawn) [II-49] | 23 | 71
5 | COCC(C)(C)COc1noc(C(=O)NC2C3CC4CC(C3)CC2C4)c1SC(C)C (stereo not drawn) [II-117] | 21 | 95
6 | CC(C)Sc1c(OCC(C)(C)C#N)noc1C(=O)N[C@H]1C2CC3CC1C[C@](O)(C3)C2 [II-130] | 33 | 86
7 | CCCSc1c(OCC2CCNCC2)noc1C(=O)NC1C2CC3CC(C2)CC1C3 (stereo not drawn) [Compound 9c] | 500 | 180
8 | CC(C)Sc1c(OCC(C)(C)C(=O)N2CCNCC2)noc1C(=O)NC1C2CC3CC(C2)CC1C3 (stereo not drawn) [II-18] | 49 | 35
9 | O=C(NC1(COc2noc(C(=O)N[C@H]3C4CC5CC3C[C@](O)(C5)C4)c2SC2CCCC2)CC1)c1ccc(Cl)cc1Cl [II-150] | 27 | 10
10 | CC(C)CSc1c(OCC(C)(C)CCCN)noc1C(=O)NC1C2CC3CC(C2)CC1C3 (stereo not drawn) [II-72] | 6.5 | 77
11 | CC(C)(COc1noc(C(=O)N[C@H]2C3CC4CC2C[C@](O)(C4)C3)c1SC1CCCC1)N1CCOC1=O [II-153] | 14 | 25
12 | CC(C)Sc1c(OCC(C)(C)NC(=O)NCCN)noc1C(=O)NC1C2CC3CC(C2)CC1C3 (stereo not drawn) [Compound 27] | 38 | 260
